Measurements as given in US9872919B2, “Prodrugs for selective anticancer therapy” (THE RESEARCH FOUNDATION FOR THE STATE UNIVERSITY OF NEW YORK, priority 2012, dated 2018).

Experiments:
CCD841-CoN cells = assay: MTS cell viability assay, normal colon cells; format: cell-based, human; conditions: negative control in pancreatic and prostate panels
Method: FIG. 15. Inhibition of cell viability by BKAc-Puro. The cell lines were grown and analyzed as in FIG. 12.
FIG. 18. Selective cytotoxicity by BKAc-Puro on pancreatic cancer cells. Pancreatic cancer (BXPC-3 and Miapaca-2), colon cancer (HCT116 as a positive control sensitive to the drug), and normal colon (CCD841-CoN as a negative control) cells were grown and analyzed as in FIG. 13. BKAc-Puro can effectively cause cell death on pancreatic cancer cells (BXPC-3 and MiaPaca-2) that are known to resistant to conventional chemotherapeutic drugs including 5-FU and Gemicitabine.
(§1) FIG. 19. Selective cytotoxicity by BKAc-Puro on prostate cancer cells. Prostate cancer (PC-3, DU-145, and LNCaP), colon cancer (HCT116 as a positive control sensitive to the drug), and normal colon (CCD841-CoN as a negative control) cells were grown and analyzed as in FIG. 13. BKAc-Puro can effectively cause cell death on prostate cancer cells.
Cell number was determined by cell counting using improved Neubauer hemacytometer. Cell viability was calculated as the number of viable cells divided by the total number of cells using Trypan Blue Stain (Invitrogen) to distinguish non-viable cells. Data were obtained from duplicated samples with quadruplicate measurements. […] After additional 2-3 h incubation, the absorbance of the formazan at 490 nm was measured by the microplate reader. […]

[1] = system: pancreatic cancer cells (BXPC-3 and MiaPaca-2); assay: MTS cell viability assay, pancreatic cancer cell lines; format: cell-based, human
Method: FIG. 16. Anticancer effect of BKAc-Puro on pancreatic cell lines. The cell lines were treated with DMSO (vehicle), BKAc-Puro (54 μM), or Puro (4.2 μM) for 5 d followed by MTS assay. Normal Eph4 (non-pancreatic) cells are shown as control. Data represent mean values of triplicate mesurements±s.d.
FIG. 18. Selective cytotoxicity by BKAc-Puro on pancreatic cancer cells. Pancreatic cancer (BXPC-3 and Miapaca-2), colon cancer (HCT116 as a positive control sensitive to the drug), and normal colon (CCD841-CoN as a negative control) cells were grown and analyzed as in FIG. 13. […]
(§2) Cell number was determined by cell counting using improved Neubauer hemacytometer. Cell viability was calculated as the number of viable cells divided by the total number of cells using Trypan Blue Stain (Invitrogen) to distinguish non-viable cells. […] After additional 2-3 h incubation, the absorbance of the formazan at 490 nm was measured by the microplate reader. […] Determination of non-viable cells using PI staining was performed by adding 1 μg/ml of PI solution (Sigma) to the cell culture, prior to the examination under fluorescence microscopy (Axiovert 3, Carl Zeiss) through a×32 objective equipped with a digital imaging processor (Infinity 3, Lumenera).

[2] = system: non-malignant Caco-2 cells; assay: Cell number determination, Caco-2; format: cell-based, human; conditions: 54 μM, 5 d
Method: FIG. 9. The colon cancer cell lines were grown for 5 d either with vehicle control DMSO (gray symbols) or 54 μM BKAc-Puro (red and blue symbols), and cell number was determined at the indicated time points.
Cell number was determined by cell counting using improved Neubauer hemacytometer. Cell viability was calculated as the number of viable cells divided by the total number of cells using Trypan Blue Stain (Invitrogen) to distinguish non-viable cells. Data were obtained from duplicated samples with quadruplicate measurements. MTS based cell viability assay was performed using CellTiter 96 Aqueous Cell Proliferation Assay (Promega) according to the manufacturer's instruction. Either 1 μl of DMSO alone or variable concentrations of BKAc-Puro or Puro in DMSO were added to the cell lines seeded at 5×10^4 cells per well in 96-well tissue culture plates in 100 μl of the growth medium, followed by 3-5 d incubation at 37° C. with 5% CO2 atmosphere. […] After additional 2-3 h incubation, the absorbance of the formazan at 490 nm was measured by the microplate reader. […] Determination of non-viable cells using PI staining was performed by adding 1 μg/ml of PI solution (Sigma) to the cell culture, prior to the examination under fluorescence microscopy (Axiovert 3, Carl Zeiss) through a×32 objective equipped with a digital imaging processor (Infinity 3, Lumenera).

[3] = system: normal mammary gland epithelial cells (Eph4); assay: PI staining cytotoxicity, normal mammary gland epithelial cells; format: cell-based, mouse
Method: FIG. 17. Selective cytotoxicity by BKAc-Puro on breast cancer cells. Normal mammary gland epithelial cells (Eph4) and breast cancer cells (MCF-7 and MDA-MB-231) were grown and analyzed as in FIG. 10. BF, bright field. PI, fluorescent PI channel. BKAc-Puro can selectively cause cell death in breast cancer cells (MCF-7 and MDA-MB-231) while leaving normal Eph4 cells unharmed.
as §2, with “cells. Data were obtained from duplicated samples with quadruplicate measurements. MTS based cell viability assay was performed using CellTiter 96 Aqueous Cell Proliferation Assay (Promega) according to the manufacturer's instruction.” for “cells.”

[4] = system: prostate cancer cells (PC-3, DU-145 and LNCaP); assay: Cytotoxicity on prostate cancer cells (MTS); format: cell-based, human
Method: as §1
as §2, with “cells. Data were obtained from duplicated samples with quadruplicate measurements. MTS based cell viability assay was performed using CellTiter 96 Aqueous Cell Proliferation Assay (Promega) according to the manufacturer's instruction.” for “cells.”

HCT116 xenograft tumors = format: in vivo
Method: (§3) FIG. 29. In vivo anticancer efficacy of Boc-KAc-Puro. (a) Tumor growth in HCT116 xenograft model. Animals were treated with acidified saline control or Boc-KAc-Puro (50 or 150 mg/kg). Values are mean±s.d. (n=5 mice per group). ***P<0.001 compared to the control group. P=0.000716 (50 mg/kg), P=0.000349 (150 mg/kg) at 10 d. (b) Body weight change during the treatment in a was monitored as a sign of general animal health. Values are mean±s.d. (c) Tumor growth in HT29 xenograft model. Animals were treated with acidified saline control or Boc-KAc-Puro (150 mg/kg). Values are mean±s.d. (n=5 mice per group). ***P<0.001 compared to the control group. P=0.000514 (150 mg/kg) at 10 d. (d) Body weight change during the treatment in c was monitored as a sign of general animal health. Values are mean±s.d. (e) Levels of Puro-incorporated proteins were monitored by immunoblotting. Animals bearing HT29 xenograft tumor were given daily intraperitoneal administration of the prodrug at 150 mg/kg/dose for 3 d, followed by preparation of tissue lysates. The lower panel (anti-α-Tubulin) served as a loading control.
Athymic mice (NCr, female, age 6 weeks, Taconic) were subcutaneously injected with 5×10^5 cells (HCT116 or HT29) into the lower flank, then treatment was initiated when small palpable tumors had developed (>3 mm in diameter). […] Tumor volumes and body weight were monitored daily. […] Data were expressed as mean±s.d. […]

[5] = system: HT29 xenograft tumor, muscle and kidney; assay: Immunological detection of Puro-labeled proteins in tissues of HT29 xenograft mice; format: in vivo; conditions: 150 mg/kg/dose daily intraperitoneal for 3 d
Method: as §3, with “Animals bearing HT29 xenograft tumor were given daily intraperitoneal administration of the prodrug at 150 mg/kg/dose for 3 d, followed by preparation of tissue lysates. The lower panel (anti-α-Tubulin) served as a loading control.” left out
Cultured cells or tissue samples were sonicated in RIPA lysis buffer (1% NP-40, 0.1% SDS, 50 mM Tris-HCl pH 7.4, 150 mM NaCl, 0.5% sodium deoxycholate, 1 mM EDTA) supplemented with PMSF and protease inhibitor cocktail (Roche) on ice followed by clarification. […] Proteins of interest were detected with anti-mouse secondary antibody by chemiluminescence (ECL Kit, GE Healthcare Life Sciences). […]

COc1ccc(C[C@H](NC(=O)[C@H](CCCCNC(C)=O)NC(=O)OC(C)(C)C)C(=O)N[C@H]2[C@@H](O)[C@H](n3cnc4c(N(C)C)ncnc43)O[C@@H]2CO)cc1 [BKAc-Puro, N-[3′-(α-Amino-p-methoxyhydrocinnamamido)-3′-deoxy-N,N-dimethyldenosinyl]-N-α-(t-butoxycarbonyl)-N-ε-acetyl-L-lysineamide]
effect on normal colon cells (CCD841-CoN cells): relatively little effect | anticancer effect on cell viability ([1]; 54 μM, 5 d, MTS): effective | cell death ([1]; cells known to be resistant to 5-FU and Gemicitabine): effectively caused cell death | cell proliferation (cell number) [2]: allowed them to proliferate to confluency | cell death [3]: unharmed | cell death [4]: effectively caused cell death | tumor growth (HCT116 xenograft tumors; 50 and 150 mg/kg/dose daily intraperitoneally for 10 d): dose-dependent inhibition of tumor growth | tumor mass vs acidified saline control (HCT116 xenograft tumors; P<0.001, 50 and 150 mg/kg, 10 d): significantly smaller tumor mass | intensity of Puro incorporation in tissues [5]: substantially greater in tumors compared with normal muscle and kidney
